Experimental data taken from the supplement of paper PMC10733146.

Tests used:
Assay in all cases: viability relative to DMSO control (fraction); higher = less drug effect (more viable cells)
Conditions in all cases: 48 h
[1] = compound: Cc1cc(Nc2cc(N3CCN(C)CC3)nc(Sc3ccc(NC(=O)C4CC4)cc3)n2)n[nH]1 [Tozasertib]
How it was run: (§1)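 Viability is given as CellTiter-Glo luminescence relative to the median of 16 inner DMSO wells. Fresh or cryopreserved primary mononuclear tumour cells from blood, bone marrow (both Ficoll-isolated) or processed lymph node were plated at 4 × 10^4 cells per well in 384-well plates against five pre-plated compound concentrations, one well each. Incubation lasted 48 h at 37 °C and 5% CO2 in RPMI-1640 with penicillin/streptomycin, L-glutamine and human serum.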

[2] = compound: CC#CC(=O)N1CC[C@@H](n2c(=O)n(-c3ccc(Oc4ccccc4)cc3)c3c(N)ncnc32)C1 [ONO-4059]
How it was run: as §1

[3] = compound: Cc1ccc(NC(=O)c2ccc(CN3CCN(C)CC3)cc2)cc1Nc1nccc(-c2cccnc2)n1 [Imatinib]
How it was run: as §1

[4] = compound: CC[C@]1(O)C[C@H]2CN(CCc3c([nH]c4ccccc34)[C@@](C(=O)OC)(c3cc4c(cc3OC)N(C=O)[C@H]3[C@@](O)(C(=O)OC)[C@H](OC(C)=O)[C@]5(CC)C=CCN6CC[C@]43[C@@H]65)C2)C1 [Vincristine]
How it was run: as §1

[5] = compound: CC(C)(C)OC(=O)Nc1ccc(-c2cc(C(=O)NCCCCCCC(=O)NO)no2)cc1
How it was run: as §1

[6] = compound: O=C(NCC1(c2nc(-c3ccccc3)cs2)CCOCC1)c1cccc(-c2noc(C(F)(F)F)n2)c1 [TMP269]
How it was run: as §1

[7] = compound: Nc1nc(Cl)nc2c1ncn2[C@H]1C[C@H](O)[C@@H](CO)O1 [Cladribine]
How it was run: as §1

[8] = compound: CC[C@H](NC(=O)[C@H](C)NC)C(=O)N1C[C@@H](O)C[C@H]1Cc1c(-c2[nH]c3cc(F)ccc3c2C[C@@H]2C[C@H](O)CN2C(=O)[C@H](CC)NC(=O)[C@H](C)NC)[nH]c2cc(F)ccc12 [Birinapant]
How it was run: as §1

[9] = compound: CC(=O)[C@]1(O)Cc2c(O)c3c(c(O)c2[C@@H](O[C@H]2C[C@H](N)[C@H](O)[C@H](C)O2)C1)C(=O)c1ccccc1C3=O [Idarubicin]
How it was run: as §1

[10] = compound: COC1=CC(c2cc3ccccc3[nH]2)=N/C1=C\c1[nH]c(C)cc1C [Obatoclax mesylate]
How it was run: as §1

[11] = compound: CCOc1cc(C(=O)N2CCC(N3CCN(C)CC3)CC2)ccc1Nc1ncc2c(n1)N(C1CCCC1)c1ccccc1C(=O)N2C [ERK5-IN-1]
How it was run: as §1

[12] = compound: COc1cc(OC)c(/C=C/S(=O)(=O)Cc2ccc(OC)c(NCC(=O)O)c2)c(OC)c1 [Rigosertib]
How it was run: as §1

[13] = compound: CC(C)C[C@H](NC(=O)[C@H](CCc1ccccc1)NC(=O)CN1CCOCC1)C(=O)N[C@@H](Cc1ccccc1)C(=O)N[C@@H](CC(C)C)C(=O)[C@@]1(C)CO1 [Carfilzomib]
How it was run: as §1

[14] = compound: CC(C)(C)c1cc(NC(=O)Nc2ccc(-c3cn4c(n3)sc3cc(OCCN5CCOCC5)ccc34)cc2)no1 [Quizartinib]
How it was run: as §1

primary AML patient cells (S009)
viability ([1]; 0.024 µM): 0.873 | viability ([1]; 0.12 µM): 0.805 | viability ([1]; 0.6 µM): 0.878 | viability ([1]; 3 µM): 0.999 | viability ([1]; 15 µM): 1.06 | viability ([2]; 0.0016 µM): 1.11 | viability ([2]; 0.008 µM): 1.04 | viability ([2]; 0.04 µM): 1.05 | viability ([2]; 0.2 µM): 1.09 | viability ([2]; 1 µM): 1.14 | viability ([3]; 0.016 µM): 0.845 | viability ([3]; 0.08 µM): 0.896 | viability ([3]; 0.4 µM): 0.968 | viability ([3]; 2 µM): 0.926 | viability ([3]; 10 µM): 0.869 | viability ([4]; 0.016 µM): 0.819 | viability ([4]; 0.08 µM): 0.614 | viability ([4]; 0.4 µM): 0.588 | viability ([4]; 2 µM): 0.575 | viability ([4]; 10 µM): 0.553 | viability ([5]; 0.024 µM): 0.892 | viability ([5]; 0.12 µM): 0.857 | viability ([5]; 0.6 µM): 0.655 | viability ([5]; 3 µM): 0.294 | viability ([5]; 15 µM): 0.136 | viability ([6]; 0.024 µM): 1.04 | viability ([6]; 0.12 µM): 0.993 | viability ([6]; 0.6 µM): 1.03 | viability ([6]; 3 µM): 0.943 | viability ([6]; 15 µM): 0.886 | viability ([7]; 0.024 µM): 0.571 | viability ([7]; 0.12 µM): 0.463 | viability ([7]; 0.6 µM): 0.353 | viability ([7]; 3 µM): 0.284 | viability ([7]; 15 µM): 0.251 | viability ([8]; 0.0008 µM): 0.901 | viability ([8]; 0.004 µM): 0.791 | viability ([8]; 0.02 µM): 0.749 | viability ([8]; 0.1 µM): 0.531 | viability ([8]; 0.5 µM): 0.456 | viability ([9]; 0.024 µM): 0.615 | viability ([9]; 0.12 µM): 0.447 | viability ([9]; 0.6 µM): 0.0924 | viability ([9]; 3 µM): 0.0581 | viability ([9]; 15 µM): 0.0709 | viability ([10]; 0.024 µM): 0.963 | viability ([10]; 0.12 µM): 0.797 | viability ([10]; 0.6 µM): 0.557 | viability ([10]; 3 µM): 0.415 | viability ([10]; 15 µM): 0.127 | viability ([11]; 0.024 µM): 1.04 | viability ([11]; 0.12 µM): 0.839 | viability ([11]; 0.6 µM): 0.697 | viability ([11]; 3 µM): 0.62 | viability ([11]; 15 µM): 0.213 | viability ([12]; 0.008 µM): 0.994 | viability ([12]; 0.04 µM): 0.961 | viability ([12]; 0.2 µM): 0.994 | viability ([12]; 1 µM): 0.936 | viability ([12]; 5 µM): 0.934 | viability ([13]; 0.00016 µM): 1.04 | viability ([13]; 0.0008 µM): 0.403 | viability ([13]; 0.004 µM): 0.0935 | viability ([13]; 0.02 µM): 0.0681 | viability ([13]; 0.1 µM): 0.0679 | viability ([14]; 0.016 µM): 0.937 | viability ([14]; 0.08 µM): 0.918 | viability ([14]; 0.4 µM): 0.849 | viability ([14]; 2 µM): 0.898 | viability ([14]; 10 µM): 0.896

primary ALL patient cells (S088)
viability ([1]; 0.024 µM): 0.727 | viability ([1]; 0.12 µM): 0.653 | viability ([1]; 0.6 µM): 0.501 | viability ([1]; 3 µM): 0.382 | viability ([1]; 15 µM): 0.286 | viability ([2]; 0.0016 µM): 1.03 | viability ([2]; 0.008 µM): 1.14 | viability ([2]; 0.04 µM): 1.07 | viability ([2]; 0.2 µM): 1.04 | viability ([2]; 1 µM): 1.02 | viability ([3]; 0.016 µM): 1.08 | viability ([3]; 0.4 µM): 1.04 | viability ([3]; 10 µM): 1.24 | viability ([4]; 0.016 µM): 0.689 | viability ([4]; 0.08 µM): 0.494 | viability ([4]; 0.4 µM): 0.335 | viability ([4]; 2 µM): 0.302 | viability ([4]; 10 µM): 0.256 | viability ([5]; 0.024 µM): 0.612 | viability ([5]; 0.12 µM): 0.528 | viability ([5]; 0.6 µM): 0.264 | viability ([5]; 3 µM): 0.127 | viability ([5]; 15 µM): 0.063 | viability ([6]; 0.024 µM): 0.709 | viability ([6]; 0.12 µM): 0.619 | viability ([6]; 0.6 µM): 0.674 | viability ([6]; 3 µM): 0.674 | viability ([6]; 15 µM): 0.729 | viability ([7]; 0.024 µM): 0.397 | viability ([7]; 0.12 µM): 0.178 | viability ([7]; 0.6 µM): 0.122 | viability ([7]; 3 µM): 0.0996 | viability ([7]; 15 µM): 0.0732 | viability ([8]; 0.0008 µM): 0.577 | viability ([8]; 0.004 µM): 0.477 | viability ([8]; 0.02 µM): 0.379 | viability ([8]; 0.1 µM): 0.316 | viability ([8]; 0.5 µM): 0.229 | viability ([9]; 0.024 µM): 0.341 | viability ([9]; 0.12 µM): 0.0818 | viability ([9]; 0.6 µM): 0.0274 | viability ([9]; 3 µM): 0.0177 | viability ([9]; 15 µM): 0.0163 | viability ([10]; 0.024 µM): 0.977 | viability ([10]; 0.12 µM): 0.804 | viability ([10]; 0.6 µM): 0.582 | viability ([10]; 3 µM): 0.262 | viability ([10]; 15 µM): 0.0738 | viability ([11]; 0.024 µM): 0.841 | viability ([11]; 0.12 µM): 0.851 | viability ([11]; 0.6 µM): 0.472 | viability ([11]; 3 µM): 0.39 | viability ([11]; 15 µM): 0.114 | viability ([12]; 0.008 µM): 0.756 | viability ([12]; 0.04 µM): 0.78 | viability ([12]; 0.2 µM): 0.778 | viability ([12]; 1 µM): 0.806 | viability ([12]; 5 µM): 0.461 | viability ([13]; 0.00016 µM): 0.844 | viability ([13]; 0.0008 µM): 0.348 | viability ([13]; 0.004 µM): 0.0398 | viability ([13]; 0.02 µM): 0.0238 | viability ([13]; 0.1 µM): 0.0318 | viability ([14]; 0.016 µM): 0.809 | viability ([14]; 0.08 µM): 0.765 | viability ([14]; 0.4 µM): 0.775 | viability ([14]; 2 µM): 0.741 | viability ([14]; 10 µM): 0.676

primary MCL patient cells (S068)
viability ([1]; 0.024 µM): 0.961 | viability ([1]; 0.12 µM): 0.895 | viability ([1]; 0.6 µM): 0.845 | viability ([1]; 3 µM): 0.725 | viability ([1]; 15 µM): 0.684 | viability ([2]; 0.0016 µM): 0.759 | viability ([2]; 0.008 µM): 0.715 | viability ([2]; 0.04 µM): 0.692 | viability ([2]; 0.2 µM): 0.665 | viability ([2]; 1 µM): 0.717 | viability ([3]; 0.016 µM): 1.19 | viability ([3]; 2 µM): 0.976 | viability ([3]; 10 µM): 0.861 | viability ([4]; 0.016 µM): 0.473 | viability ([4]; 0.08 µM): 0.413 | viability ([4]; 0.4 µM): 0.357 | viability ([4]; 2 µM): 0.28 | viability ([4]; 10 µM): 0.253 | viability ([5]; 0.024 µM): 0.812 | viability ([5]; 0.12 µM): 0.533 | viability ([5]; 0.6 µM): 0.216 | viability ([5]; 3 µM): 0.115 | viability ([5]; 15 µM): 0.0907 | viability ([6]; 0.024 µM): 0.882 | viability ([6]; 0.12 µM): 0.943 | viability ([6]; 0.6 µM): 0.894 | viability ([6]; 3 µM): 1.01 | viability ([6]; 15 µM): 1.24 | viability ([7]; 0.024 µM): 0.741 | viability ([7]; 0.12 µM): 0.376 | viability ([7]; 0.6 µM): 0.233 | viability ([7]; 3 µM): 0.161 | viability ([7]; 15 µM): 0.175 | viability ([8]; 0.0008 µM): 0.868 | viability ([8]; 0.004 µM): 0.758 | viability ([8]; 0.02 µM): 0.663 | viability ([8]; 0.1 µM): 0.55 | viability ([8]; 0.5 µM): 0.489 | viability ([9]; 0.024 µM): 0.835 | viability ([9]; 0.12 µM): 0.457 | viability ([9]; 0.6 µM): 0.154 | viability ([9]; 3 µM): 0.017 | viability ([9]; 15 µM): 0.021 | viability ([10]; 0.024 µM): 1.07 | viability ([10]; 0.12 µM): 2.64 | viability ([10]; 0.6 µM): 5.84 | viability ([10]; 3 µM): 4.5 | viability ([10]; 15 µM): 1.46 | viability ([11]; 0.024 µM): 0.883 | viability ([11]; 0.12 µM): 0.815 | viability ([11]; 0.6 µM): 0.478 | viability ([11]; 3 µM): 0.269 | viability ([11]; 15 µM): 0.181 | viability ([12]; 0.008 µM): 0.94 | viability ([12]; 0.04 µM): 0.934 | viability ([12]; 0.2 µM): 0.846 | viability ([12]; 1 µM): 0.835 | viability ([12]; 5 µM): 0.37 | viability ([13]; 0.00016 µM): 0.897 | viability ([13]; 0.0008 µM): 0.257 | viability ([13]; 0.004 µM): 0.0483 | viability ([13]; 0.02 µM): 0.0291 | viability ([13]; 0.1 µM): 0.0301 | viability ([14]; 0.016 µM): 1.08 | viability ([14]; 0.08 µM): 1.17 | viability ([14]; 0.4 µM): 1.23 | viability ([14]; 2 µM): 1.39 | viability ([14]; 10 µM): 1.51
